{"source": "EPA's ToxValDB 9.5 (doi:10.2903/j.efsa.2009.310r)", "key": {"Anas platyrhynchos [1]": {"test_system": "Anas platyrhynchos", "conditions": "oral, mortality; for LD50: acute, unspecified; for LC50: short-term, feed"}, "Apis mellifera": {"test_system": "Apis mellifera", "conditions": "acute; dermal; mortality"}, "Bibionidae": {"test_system": "Bibionidae", "conditions": "chronic/long-term; duration: 28 days"}, "Ceriodaphnia dubia": {"test_system": "Ceriodaphnia dubia", "conditions": "chronic/long-term; duration: 7 days; reproduction"}, "Colinus virginianus": {"test_system": "Colinus virginianus", "conditions": "acute, oral, mortality; for LC50: diet"}, "Coturnix coturnix": {"test_system": "Coturnix coturnix", "conditions": "acute, oral, mortality"}, "Folsomia candida": {"test_system": "Folsomia candida", "conditions": "chronic/long-term; duration: 28 days"}, "Hypoaspis aculeifer": {"test_system": "Hypoaspis aculeifer", "conditions": "chronic/long-term; duration: 28 days"}, "Lepomis macrochirus": {"test_system": "Lepomis macrochirus", "conditions": "acute; duration: 96 hours; mortality"}, "Phasianus sp.": {"test_system": "Phasianus sp.", "conditions": "acute, oral, unspecified, mortality"}, "Rattus norvegicus": {"test_system": "Rattus norvegicus", "conditions": "mortality"}, "Anas platyrhynchos [2]": {"test_system": "Anas platyrhynchos", "experiment": "LC10; higher = less toxic", "conditions": "short-term; duration: 14 days; oral; feed; mortality"}}, "note": "Where “and” joins values, the source holds several entries; their conditions need not be identical. Equal values may be shown once."}
{"smiles": "CNC(=O)Oc1cccc2c1OC(C)(C)C2", "note": "[Carbofuran]", "values": [{"measurement": "LD50", "setting": "Anas platyrhynchos [1]; F", "result": 0.86, "unit": "mg/kg-day"}, {"measurement": "LD50", "setting": "Anas platyrhynchos [1]", "result": 0.76, "unit": "mg/kg-day"}, {"measurement": "LC50", "setting": "Anas platyrhynchos [1]; duration: 5 days", "result": "10 mg/kg-day and 17 mg/kg-day"}, {"measurement": "LC50", "setting": "Anas platyrhynchos [1]; duration: 14 days", "result": 1.6, "unit": "mg/kg-day"}, {"measurement": "LD50", "setting": "Apis mellifera", "result": 0.0357, "unit": "µg/piece"}, {"measurement": "NOEC", "setting": "Bibionidae", "result": 0.0032, "unit": "mg/L"}, {"measurement": "NOEC", "setting": "Ceriodaphnia dubia", "result": 0.00016, "unit": "mg/L"}, {"measurement": "LC50", "setting": "Colinus virginianus; duration: 5 days", "result": 114, "unit": "mg/kg-day"}, {"measurement": "LC50", "setting": "Colinus virginianus; duration: 7 days", "result": 20.8, "unit": "mg/kg-day"}, {"measurement": "LC50", "setting": "Colinus virginianus; duration: 14 days", "result": 15.8, "unit": "mg/kg-day"}, {"measurement": "LD50", "setting": "Colinus virginianus; M/F", "result": 8, "unit": "mg/kg-day"}, {"measurement": "LD50", "setting": "Coturnix coturnix; F", "result": 3.5, "unit": "mg/kg-day"}, {"measurement": "LD50", "setting": "Coturnix coturnix; M", "result": 4.9, "unit": "mg/kg-day"}, {"measurement": "NOEC", "setting": "Folsomia candida", "result": 0.21, "unit": "mg/kg"}, {"measurement": "NOEC", "setting": "Hypoaspis aculeifer", "result": 10.4, "unit": "mg/kg"}, {"measurement": "LC50", "setting": "Lepomis macrochirus", "result": 0.18, "unit": "mg/L"}, {"measurement": "LD50", "setting": "Phasianus sp.; F", "result": 6.2, "unit": "mg/kg-day"}, {"measurement": "LD50", "setting": "Phasianus sp.; M", "result": 4, "unit": "mg/kg-day"}, {"measurement": "LD50", "setting": "Rattus norvegicus; acute, oral", "result": "< 5.6", "unit": "mg/kg-day"}, {"measurement": "NOAEL", "setting": "Rattus norvegicus; chronic", "result": 0.1, "unit": "mg/kg-day"}, {"measurement": "LC50", "setting": "Tagia sp.; acute, duration: 14 days, mortality", "result": "> 50", "unit": "mg/kg"}, {"measurement": "NOEC", "setting": "Tagia sp.; chronic/long-term, duration: 56 days", "result": "< 0.84", "unit": "mg/kg"}, {"measurement": "LC10", "setting": "Anas platyrhynchos [2]", "result": 0.64, "unit": "mg/kg-day"}]}
